Data on 17 compounds can be found in patent publication US20230374025A1, “FGFR INHIBITOR COMPOUND AND USE THEREOF” (SHENZHEN KANGSU PHARMACEUTICAL TECHNOLOGY CO., LTD., priority 2021, published 2023).

What all share (format): biochemical
Experiment [1] concerns the target T1, FGFR3 V555M (Homo sapiens, UniProt P22607, V555M).
T1 construct: purchased Signalchem F06-12GG
As to the kind of experiment: Assay I: inhibitory activity against FGFR mutants (HTRF KinEASE-TK). Particulars: ATP 20 μM, substrate TK 1 μM. As for the experimental part:
(§1) Assay I: Determination of Inhibitory Activity Against FGFR Mutants
(§2) 1. Reagents and Equipment
(§3) 2.1 Preparation of 1× Kinase Reaction Buffer:
(§4) 1× Kinase reaction buffer was formulated with 1× volume of 5× kinase reaction buffer and 4× volume of water; 5 mM MgCl2; and 1 mM DTT.
(§5) 2.3 Screening of Compounds:
(§6) 1. Diluting a compound 4-fold in a dilution plate with DMSO, with a starting compound concentration of 2 mM.
(§7) 2. Diluting the compound 40-fold into 1× kinase reaction buffer and shaking it on a shaker for 20 minutes.
(§8) 5. Adding 1 μl of the compound diluted in buffer to each well, sealing the plate with a sealing membrane and centrifuging the plate at 1000 g for 30 seconds and leaving it at room temperature for 10 minutes.
(§9) 6. Formulating 2.5×TK-substrate-biotin and ATP mixture with 1× enzyme reaction buffer and adding 2 μl of K-substrate-biotin/ATP mixture to the reaction plate.
(§10) 7. Sealing the plate with a sealing membrane and centrifuging the plate at 1000 g for 30 seconds and allowing it to react at room temperature for 50 minutes.
(§11) 8. Formulating 4× Sa-XL 665 (250 nM) with HTRF assay buffer.
(§12) 9. Adding 5 μl Sa-XL 665 and 5 μl TK-Antibody-Cryptate to each well, centrifuging it at 1000 g for 30 seconds, and allowing it to react for 1 hour at room temperature.
(§13) 10. Reading fluorescence signals at 615 nm (Cryptate) and 665 nm (XL665) with Biotek.
(§14) 3.1 Calculation of the ratio for each well: the ratio was calculated as 665/615 nm.
(§15) 3.3 Calculation of IC50 and plotting of inhibition curves for the compounds.
(§16) The IC50 (half inhibition concentration) of a compound was obtained using the following non-linear fitting equation, wherein data analysis was performed using Graphpad 6.0 software.
(§17) Y=Bottom+(Top−Bottom)/(1+10^((Log IC50−X)*Hill Slope)) • X: log value of compound concentration; and Y: inhibition rate (% inh)
(§18) 3.4 Validation of Results
(§19) Data were exported from Envision and analyzed manually. The ratios were converted to inhibition rates and IC50 was calculated by Prism GraphPad 6.0 from the inhibition rates. IC50 was calculated again by the ratios to verify accuracy of the results.
(In general: In TR-FRET formats the signal depends on donor and acceptor labels being close together.)

For experiment [2], the target named is T2, FGFR1 V561M (Homo sapiens, UniProt P11362, V561M).
T2 construct: purchased Signalchem F04-13G
T2 sequence (P11362 22-822 V561M): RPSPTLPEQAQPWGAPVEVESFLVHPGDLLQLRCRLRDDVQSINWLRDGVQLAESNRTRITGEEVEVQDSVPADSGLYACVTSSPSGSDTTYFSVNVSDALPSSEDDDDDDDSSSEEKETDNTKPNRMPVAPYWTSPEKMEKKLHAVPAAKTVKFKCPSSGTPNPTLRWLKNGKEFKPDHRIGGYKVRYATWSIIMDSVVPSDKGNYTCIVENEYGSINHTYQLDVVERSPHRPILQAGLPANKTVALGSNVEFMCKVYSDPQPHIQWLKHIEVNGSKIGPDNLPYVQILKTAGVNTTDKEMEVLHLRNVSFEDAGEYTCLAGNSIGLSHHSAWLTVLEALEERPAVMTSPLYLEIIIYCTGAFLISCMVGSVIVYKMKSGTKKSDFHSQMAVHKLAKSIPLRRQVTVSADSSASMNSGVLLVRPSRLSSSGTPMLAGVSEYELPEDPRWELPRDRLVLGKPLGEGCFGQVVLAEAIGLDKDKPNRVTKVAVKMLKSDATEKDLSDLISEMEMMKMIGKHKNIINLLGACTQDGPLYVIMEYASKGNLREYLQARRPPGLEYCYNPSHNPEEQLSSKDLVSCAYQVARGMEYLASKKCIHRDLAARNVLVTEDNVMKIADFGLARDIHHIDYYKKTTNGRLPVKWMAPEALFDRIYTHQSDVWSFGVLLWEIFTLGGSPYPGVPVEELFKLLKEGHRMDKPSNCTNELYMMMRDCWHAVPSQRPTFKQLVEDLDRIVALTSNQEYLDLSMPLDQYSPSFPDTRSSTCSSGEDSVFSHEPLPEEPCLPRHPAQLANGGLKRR
The experiment is described as above. Particulars: ATP 5 μM, substrate TK 1 μM. The protocol: as §1, §2, §3, §4, §5, §6, §7, §8, §9, §10, §11, §12, §13, §14, §15, §16, §17, §18, §19

The target in experiment [3] is T3, FGFR2 V564F (Homo sapiens, UniProt P21802, V564F).
T3 construct: purchased Signalchem F05-12FG
T3 sequence (P21802 22-821 V564F): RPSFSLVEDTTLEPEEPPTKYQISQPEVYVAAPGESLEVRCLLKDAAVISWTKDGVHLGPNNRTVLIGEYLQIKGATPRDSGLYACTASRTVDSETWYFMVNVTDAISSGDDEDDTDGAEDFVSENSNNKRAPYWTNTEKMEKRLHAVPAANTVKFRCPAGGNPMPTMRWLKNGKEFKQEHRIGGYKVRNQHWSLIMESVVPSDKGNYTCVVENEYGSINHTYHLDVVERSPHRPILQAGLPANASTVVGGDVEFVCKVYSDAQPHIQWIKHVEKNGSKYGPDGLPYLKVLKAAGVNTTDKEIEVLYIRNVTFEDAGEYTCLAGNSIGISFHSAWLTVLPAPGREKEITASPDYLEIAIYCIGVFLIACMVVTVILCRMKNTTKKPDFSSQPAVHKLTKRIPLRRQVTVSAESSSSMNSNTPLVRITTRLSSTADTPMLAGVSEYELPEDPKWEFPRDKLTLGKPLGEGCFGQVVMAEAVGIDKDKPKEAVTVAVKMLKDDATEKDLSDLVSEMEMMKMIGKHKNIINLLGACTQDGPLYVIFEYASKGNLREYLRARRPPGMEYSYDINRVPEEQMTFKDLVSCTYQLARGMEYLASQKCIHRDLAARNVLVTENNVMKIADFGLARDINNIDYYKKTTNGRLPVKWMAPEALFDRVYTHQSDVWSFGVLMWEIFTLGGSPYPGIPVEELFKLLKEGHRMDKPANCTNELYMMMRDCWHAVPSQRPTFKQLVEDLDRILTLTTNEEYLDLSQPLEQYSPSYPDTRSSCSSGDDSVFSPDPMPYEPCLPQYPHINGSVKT
The experiment is described as above. The note with it: ATP 10 μM, substrate TK 1 μM. The protocol: as §1, §2, §3, §4, §5, §6, §7, §8, §9, §10, §11, §12, §13, §14, §15, §16, §17, §18, §19

Experiment [4] addresses T4, VEGFR2 (Homo sapiens, UniProt P35968).
T4 construct: purchased Carna 08-191
As to the kind of experiment: Assay I: VEGFR2 kinase inhibition (HTRF KinEASE-TK). Particulars: ATP 5 μM, substrate TK 1 μM. As for the experimental part:
as §1, §2, §3, §4, §5, §6, §7
3. Formulating 2×FGFR1 V561M/FGFR2 V564F/FGFR3 K650E/VEGFR2 with 1× of enzyme reaction buffer.
4. Adding 2 μl FGFR1 V561M/FGFR2 V564F/FGFR3 K650E/VEGFR2 kinase (formulated in step 3) to each well of the reaction plate.
as §8, §9, §10, §11, §12, §13, §14, §15, §16, §17, §18, §19
Positive control IC50 was within 3 times of the average value

T1 sequence (P22607 397-806 V555M limits assumed): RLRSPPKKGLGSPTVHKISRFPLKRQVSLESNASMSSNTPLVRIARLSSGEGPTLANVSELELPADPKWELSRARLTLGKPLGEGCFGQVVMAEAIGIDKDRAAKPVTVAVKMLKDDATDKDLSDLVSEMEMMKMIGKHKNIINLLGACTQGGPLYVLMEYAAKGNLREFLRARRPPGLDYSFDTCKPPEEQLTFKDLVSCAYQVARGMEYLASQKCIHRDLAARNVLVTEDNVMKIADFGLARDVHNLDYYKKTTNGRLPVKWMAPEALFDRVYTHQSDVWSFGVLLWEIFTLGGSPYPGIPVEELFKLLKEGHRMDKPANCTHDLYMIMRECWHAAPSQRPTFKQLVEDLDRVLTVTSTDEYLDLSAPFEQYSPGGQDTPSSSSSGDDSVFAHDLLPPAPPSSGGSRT
T4 sequence (P35968 20-1356): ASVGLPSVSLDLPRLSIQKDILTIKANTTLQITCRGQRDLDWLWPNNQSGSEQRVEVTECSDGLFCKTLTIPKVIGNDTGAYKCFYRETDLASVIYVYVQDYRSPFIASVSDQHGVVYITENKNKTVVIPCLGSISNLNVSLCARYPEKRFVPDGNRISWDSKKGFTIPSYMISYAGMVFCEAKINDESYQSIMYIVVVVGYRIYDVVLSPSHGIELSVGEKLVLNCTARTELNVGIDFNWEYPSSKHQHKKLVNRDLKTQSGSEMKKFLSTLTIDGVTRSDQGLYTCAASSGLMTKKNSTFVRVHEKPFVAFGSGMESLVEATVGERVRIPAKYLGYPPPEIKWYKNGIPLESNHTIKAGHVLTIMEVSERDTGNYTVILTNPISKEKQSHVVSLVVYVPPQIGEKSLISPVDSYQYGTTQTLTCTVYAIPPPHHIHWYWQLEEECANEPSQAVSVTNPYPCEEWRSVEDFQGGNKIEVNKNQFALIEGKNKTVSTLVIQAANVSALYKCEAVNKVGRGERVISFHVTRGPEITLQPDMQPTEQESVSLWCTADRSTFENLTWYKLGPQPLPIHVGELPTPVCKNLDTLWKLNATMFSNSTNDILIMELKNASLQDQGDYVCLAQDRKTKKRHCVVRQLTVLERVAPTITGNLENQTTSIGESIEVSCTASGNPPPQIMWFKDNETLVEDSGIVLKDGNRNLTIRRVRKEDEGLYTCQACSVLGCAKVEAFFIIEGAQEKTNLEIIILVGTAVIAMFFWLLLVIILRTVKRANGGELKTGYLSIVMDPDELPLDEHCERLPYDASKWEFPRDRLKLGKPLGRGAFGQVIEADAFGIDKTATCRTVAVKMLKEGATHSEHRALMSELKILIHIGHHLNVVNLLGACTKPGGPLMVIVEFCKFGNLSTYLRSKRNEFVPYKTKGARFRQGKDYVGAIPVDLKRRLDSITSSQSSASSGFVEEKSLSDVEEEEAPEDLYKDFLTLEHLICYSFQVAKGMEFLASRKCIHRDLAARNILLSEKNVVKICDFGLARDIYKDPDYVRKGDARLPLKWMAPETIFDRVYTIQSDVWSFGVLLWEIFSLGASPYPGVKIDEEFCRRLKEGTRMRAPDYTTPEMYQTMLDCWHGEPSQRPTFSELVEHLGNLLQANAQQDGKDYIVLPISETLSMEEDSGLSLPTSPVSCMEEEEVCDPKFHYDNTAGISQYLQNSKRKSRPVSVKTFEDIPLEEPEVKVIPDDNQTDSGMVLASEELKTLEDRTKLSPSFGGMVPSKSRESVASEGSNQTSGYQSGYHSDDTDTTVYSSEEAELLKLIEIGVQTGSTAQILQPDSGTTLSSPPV

By IC50 is commonly meant the point on the concentration scale where inhibition reaches its midpoint. Read a high IC50 as lower potency. Regarding `CC(Oc1ccc2[nH]nc(-c3nc4c([nH]3)CN(S(C)(=O)=O)C4)c2c1)c1c(Cl)cncc1Cl` (centres unmarked) [Compound 16, 5-(1-(3,5-dichloropyridin-4-yl)ethoxy)-3-(5-(methylsulfonyl)-1,4,5,6-tetrahydropyrrolo[3,4-d]imidazol-2-yl)-1H-indazole], the IC50 in experiment [1] came out at 0.35 nM; in experiment [2], 0.39 nM; in experiment [3], 0.22 nM; in experiment [4] it was 22.1 nM.
For `COC(=O)N1Cc2nc(-c3n[nH]c4ccc(OC(C)c5c(Cl)cncc5Cl)cc34)[nH]c2C1` (centres unmarked) [Compound 17, Methyl 2-(5-(1-(3,5-dichloropyridin-4-yl)ethoxy)-1H-indazol-3-yl)-4,6-dihydropyrrolo[3,4-d]imidazole-5(1H)-carboxylate], the IC50 in experiment [1] came out at 0.21 nM; in experiment [2], 1.2 nM; in experiment [3] it was 0.74 nM; in experiment [4] it was 49 nM.
The like results for `CC(Oc1ccc2[nH]nc(-c3nc4c([nH]3)CNC4)c2c1)c1c(Cl)cncc1Cl` (centres unmarked) [Compound 19, 5-(1-(3,5-dichloropyridin-4-yl)ethoxy)-3-(1,4,5,6-tetrahydropyrrolo[3,4-d]imidazol-2-yl)-1H-indazole] were, in that order, 0.76 nM, 0.6 nM, 0.59 nM and 31 nM.
The like results for `CC(Oc1ccc2[nH]nc(-c3nc4c([nH]3)CN(C3CC(O)C3)C4)c2c1)c1c(Cl)cncc1Cl` (centres unmarked) [Compound 21, 3-(2-(5-(1-(3,5-dichloropyridin-4-yl)ethoxy)-1H-indazol-3-yl)-4,6-dihydropyrrolo[3,4-d]imidazol-5(1H)-yl)cyclobutan-1-ol] were, in that order, 0.64 nM, 0.97 nM, 0.66 nM and 26 nM.
The like results for `CC(Oc1ccc2[nH]nc(-c3nc4c([nH]3)CN(C3CCC(O)CC3)C4)c2c1)c1c(Cl)cncc1Cl` (centres unmarked) [Compound 22, 4-(2-(5-(1-(3,5-dichloropyridin-4-yl)ethoxy)-1H-indazol-3-yl)-4,6-dihydropyrrolo[3,4-d]imidazol-5(1H)-yl)cyclohexan-1-ol] were, in that order, 0.91 nM, 1.8 nM, 0.76 nM and 11.7 nM.
Turning to `CCOC(=O)N1Cc2nc(-c3n[nH]c4ccc(OC(C)c5c(Cl)cncc5Cl)cc34)[nH]c2C1` (centres unmarked) [Compound 23, Ethyl 2-(5-(1-(3,5-dichloropyridin-4-yl)ethoxy)-1H-indazol-3-yl)-4,6-dihydropyrrolo[3,4-d]imidazole-5(1H)-carboxylate], the IC50 is 1.3 nM in experiment [1], 1.2 nM in experiment [2], 0.48 nM in experiment [3] and 85 nM in experiment [4].
The like results for `CC(Oc1ccc2[nH]nc(-c3nc4c([nH]3)CN(C(=O)OCCC#N)C4)c2c1)c1c(Cl)cncc1Cl` (centres unmarked) [Compound 24, 2-cyanoethyl 2-(5-(1-(3,5-dichloropyridin-4-yl)ethoxy)-1H-indazol-3-yl)-4,6-dihydropyrrolo[3,4-d]imidazole-5(1H)-carboxylate] were, in that order, 4.6 nM, 2.4 nM, 1.4 nM and 27.5 nM.
Regarding `CC(Oc1ccc2[nH]nc(-c3nc4c([nH]3)CN(C(=O)C3CC3)C4)c2c1)c1c(Cl)cncc1Cl` (centres unmarked) [Compound 25, Cyclopropyl (2-(5-(1-(3,5-dichloropyridin-4-yl)ethoxy)-1H-indazol-3-yl)-4,6-dihydropyrrolo[3,4-d]imidazol-5(1H)-yl)ketone], the IC50 in experiment [1] is 0.26 nM; in experiment [2] it was 0.98 nM; in experiment [3] it was 0.41 nM; in experiment [4], 10 nM.
For the compound `CC(Oc1ccc2[nH]nc(-c3nc4c([nH]3)CN(C(=O)C3CC(O)C3)C4)c2c1)c1c(Cl)cncc1Cl` (centres unmarked) [Compound 26, (2-(5-(1-(3,5-dichloropyridin-4-yl)ethoxy)-1H-indazol-3-yl)-4,6-dihydropyrrolo[3,4-d]imidazol-5(1H)-yl)(3-hydroxycyclobutyl)ketone], the IC50 came out at 0.13 nM in experiment [1], 0.38 nM in experiment [2], 0.17 nM in experiment [3] and 7.1 nM in experiment [4].
On to `CC(Oc1ccc2[nH]nc(-c3nc4c([nH]3)CN(C(=O)CC#N)C4)c2c1)c1c(Cl)cncc1Cl` (centres unmarked) [Compound 27, 3-(2-(5-(1-(3,5-dichloropyridin-4-yl)ethoxy)-1H-indazol-3-yl)-4,6-dihydropyrrolo[3,4-d]imidazol-5(1H)-yl)-3-oxopropionitrile], for which the IC50 worked out at 0.4 nM in experiment [1], 0.94 nM in experiment [2], 0.16 nM in experiment [3] and 37.5 nM in experiment [4].
The like results for `CCS(=O)(=O)N1Cc2nc(-c3n[nH]c4ccc(OC(C)c5c(Cl)cncc5Cl)cc34)[nH]c2C1` (centres unmarked) [Compound 28, 5-(1-(3,5-dichloropyridin-4-yl)ethoxy)-3-(5-(ethylsulfonyl)-1,4,5,6-tetrahydropyrrolo[3,4-d]imidazol-2-yl)-1H-indazole] were, in that order, 0.52 nM, 1.6 nM, 0.3 nM and 30 nM.
As for `CC(Oc1ccc2[nH]nc(-c3nc4c([nH]3)CN(S(=O)(=O)C3CC3)C4)c2c1)c1c(Cl)cncc1Cl` (centres unmarked) [Compound 29, 3-(5-(Cyclopropylsulfonyl)-1,4,5,6-tetrahydropyrrolo[3,4-d]imidazol-2-yl)-5-(1-(3,5-dichloropyridin-4-yl)ethoxy)-1H-indazole], the IC50 in experiment [1] is 0.7 nM; in experiment [2], 1.2 nM; in experiment [3] it was 1.6 nM; in experiment [4], 64 nM.
The like results for `CC(Oc1ccc2[nH]nc(-c3nc4c([nH]3)CN(S(=O)(=O)C(C)C)C4)c2c1)c1c(Cl)cncc1Cl` (centres unmarked) [Compound 30, 5-(1-(3,5-dichloropyridin-4-yl)ethoxy)-3-(5-(isopropylsulfonyl)-1,4,5,6-tetrahydropyrrolo[3,4-d]imidazol-2-yl)-1H-indazole] were, in that order, 0.6 nM, 0.4 nM, 0.3 nM and 96 nM.
Consider `CC(Oc1ccc2[nH]nc(-c3nc4c([nH]3)CN(C(=O)CN3CCC(O)C3)C4)c2c1)c1c(Cl)cncc1Cl` (centres unmarked) [Compound 31, 1-(2-(5-(1-(3,5-dichloropyridin-4-yl)ethoxy)-1H-indazol-3-yl)-4,6-dihydropyrrolo[3,4-d]imidazol-5(1H)-yl)-2-(3-hydroxypyrrolidin-1-yl)ethan-1-one], for which the half-maximal inhibitory concentration (IC50) in experiment [1] is 0.1 nM; in experiment [2], 0.67 nM; in experiment [3], 0.15 nM; in experiment [4], 14 nM.
The like results for `CC(Oc1ccc2[nH]nc(-c3nc4c([nH]3)CN(C(=O)CN3CCC(C#N)C3)C4)c2c1)c1c(Cl)cncc1Cl` (centres unmarked) [Compound 32, 1-(2-(2-(5-(1-(3,5-dichloropyridin-4-yl)ethoxy)-1H-indazol-3-yl)-4,6-dihydropyrrolo[3,4-d]imidazol-5(1H)-yl)-2-oxoethyl)pyrrolidine-3-carbonitrile] were, in that order, 0.19 nM, 1.1 nM, 1.2 nM and 3.7 nM.
Take `CNC(=O)N1Cc2nc(-c3n[nH]c4ccc(O[C@H](C)c5c(Cl)cncc5Cl)cc34)[nH]c2C1` [Compound 33, (R)-2-(5-(1-(3,5-dichloropyridin-4-yl)ethoxy)-1H-indazol-3-yl)-N-methyl-4,6-dihydropyrrolo[3,4-d]imidazole-5(1H)-carboxamide]: the IC50 is 0.46 nM in experiment [1], 1.3 nM in experiment [2], 0.45 nM in experiment [3] and 6.3 nM in experiment [4].
The like results for `C[C@@H](Oc1ccc2[nH]nc(-c3nc4c([nH]3)CN(C(=O)N(C)C)C4)c2c1)c1c(Cl)cncc1Cl` [Compound 34, (R)-2-(5-(1-(3,5-dichloropyridin-4-yl)ethoxy)-1H-indazol-3-yl)-N,N-dimethyl-4,6-dihydropyrrolo[3,4-d]imidazole-5(1H)-carboxamide] were, in that order, 0.27 nM, 0.46 nM, 0.29 nM and 1.7 nM.
